According to US11793782B2, “Therapeutic agents for neurodegenerative diseases” (priority 2017, dated 2023):

Experiments:
[1] = system: Hexb−/− mouse (Sandhoff disease model); assay: Step cycle, Sandhoff mouse; assay type: in vivo; conditions: Sandhoff mice, 0.1 g/kg from 3 weeks of age, 12 weeks of age
Experimental: Step cycle is the length of time taken during locomotion by a limb from the time it leaves the ground until it leaves the ground on the next occasion. Step cycle time was assessed at 12 weeks of age in untreated and acetyl-leucine treated Sandhoff model mice. Acetyl-leucine treatment constituted 0.1 g/kg body weight acetyl-leucine from 3 weeks of age.

[2] = system: frontotemporal dementia with parkinsonism patient; assay: Case study, frontotemporal dementia with parkinsonism; assay type: in vivo, human; conditions: frontotemporal dementia with parkinsonism
From the text: After approximately one month of acetyl-leucine treatment, medication was stopped and the patient was re-examined 13 days later.

[3] = system: patients with Niemann-Pick Type C (NPC); conditions: Bremova et al. (2015); cited from earlier work
[4] = system: Aspartylglucosaminuria patient fibroblasts; assay: Lysosomal volume via LysoTracker, Aspartylglucosaminuria fibroblasts; assay type: cell-based, human; conditions: 1 mM, 6 days
[5] = system: microtubule-associated protein 1A/1B-light chain 3-phosphatidylethanolamine conjugate (LC3-II); assay: LC3-II levels in NPC1−/− mice; assay type: in vivo, mouse; conditions: 0.1 g/kg body weight daily from 3 weeks of age, sacrificed at 8 weeks
Experimental: The Niemann-Pick Disease Type C (NPC) mouse model shares a number of pathological features with Alzheimer's disease (AD) as described herein. […] Mice were sacrificed at 8 weeks of age. Levels of amyloid precursor protein C-terminal fragments (APP-CTFs) were evaluated relative to total amyloid precursor protein (APP) levels in the cerebellum for wild type, untreated wild type NPC1^−/− mice, and AL-treated wild type NPC1^−/− mice. Levels of microtubule-associated protein 1A/1B-light chain 3-phosphatidylethanolamine conjugate (LC3-II) were also evaluated relative to levels of tubulin loading control for wild type, untreated wild type NPC1^−/− mice, and AL-treated wild type NPC1^−/− mice.

[6] = system: AB variant of Tay-Sachs disease patient fibroblasts; assay: Glycosphingolipid (GSL) levels by HPLC, AB variant fibroblasts; assay type: cell-based, human; conditions: 1 mM for 6 days
[7] = system: restless leg syndrome patients; assay: Case studies, restless legs syndrome (IRLS score); assay type: in vivo, human; parameters: key to IRLS: IRLS 0 (no symptoms) to 40; >30 very severe, ≤10 mild
From the text: A widely reported rating scale known as the International Restless Leg Syndrome Study Group Rating Scale (“IRLS”) was developed by the International Restless Legs Syndrome Study Group (“IRLSSG”) (http://www.irlssg.org/) (Walters et al., Validation of the International Restless Legs Syndrome Study Group rating scale for restless legs syndrome. Sleep medicine. 2003 Apr. 1; 4(2):121-32). The IRLS is a 10-item scale with scores ranging from 0 (no symptoms) to 40. Scores >30 are considered very severe, severe (Score 21-30), moderate (scores 11-20) and ≤10, mild. Use of the scale is common for clinical assessment, research and therapeutic trials with RLS. In one embodiment, treatment with leucine, acetyl-leucine, or a pharmaceutically acceptable salt thereof as described herein decreases the subject's International Restless Leg Syndrome Study Group Rating Scale (“IRLS”) compared to a baseline. In one embodiment, the IRLS is reduced compared to baseline by at least 10%, at least 20%, at least 30%, at least 40%, or at least 50%. In one embodiment, the IRLS is reduced by at least 60%, at least 70%, at least 80%, at least 90%, or 100%.
The patient in this case study was a person showing proximal weakness of the so lower limb. […] Upon consultation, they reported no sensory symptoms but complained of a restless leg syndrome at night and during resting periods of the day, occurring over the course of the last two years. Pre-treatment with dopamine agonist were without symptom relief. Serum creatine kinase activity was only mildly elevated at up to 400 IU/L. The patient was evaluated using the RLS diagnostic index (RLS-DI) (see Walters et al., Sleep Med 2003; 4(2):121-132;). The patient's International Restless Legs Syndrome Rating Scale score (IRLS) was 36, and thus a severe RLS was diagnosed. […] Re-introduction of the treatment re-declined the score to 8 after 2 weeks. Continuation of treatment over more than 22 weeks stabilized the IRLS score at 8.
The patient in this case study was a person showing proximal weakness of the lower limb. […] Upon consultation, they reported no sensory symptoms but complained of a restless leg syndrome at night and during resting periods of the day, occurring over the course of the last eight years. […] Serum creatine kinase activity was mildly elevated at 300 IU/L. Iron measurements and all additional lab investigations were normal. The patient was evaluated using the RLS-DI and the patient's IRLS was 32, and thus a moderate to severe RLS was diagnosed. […] Continuation of treatment over more than 28 weeks stabilized the IRLS score at 8.
The patient in this case study was a person showing mild proximal weakness of the upper and lower limbs slowly progressive. The patient had been diagnosed (genetically confirmed) with McArdle myopathy about 16 years ago. Upon consultation, they reported no sensory symptoms but complained about a severe fatigue and reduced stamina. The patient further reported a restless leg syndrome at night and during resting periods of the day, occurring over the course of the last 12 years. […] Serum creatine kinase activity was mildly elevated at 200 IU/L; however, the patient had 5 episodes of rhabdomyolysis during the past 20 years. Repeated iron measurements and all additional lab investigations were normal. The patient was evaluated using the RLS-DI and the patient's IRLS was 34, and thus a severe RLS was diagnosed. […] Continuation of treatment over more than 30 weeks stabilized the IRLS score at 10. In addition, the patient's fatigue declined (Fatigue Severit Scale: 9 (minimum) to 63 (maximum)) from 53 to 28.

[8] = system: ataxia with oculomotor apraxia type 4 patients; assay: Case study, ataxia with oculomotor apraxia type 4; assay type: in vivo, human; conditions: AOA4 youngest sibling; on treatment
From the text: In this case study, four patients (male siblings) suffered from, and were later diagnosed with, ataxia with oculomotor apraxia type 4. The older three siblings […], at the time of disease onset. […] The older siblings began treatment with acetyl-leucine […], respectively, and have been on the treatment for approximately four years. No long-term clinical data is available for these three patients.
The youngest sibling was […] at the time of onset. […] No long-term clinical data is available for the youngest sibling.

[9] = system: MSA-P patients; assay: Case studies, multiple system atrophy Parkinson type (MSA-P) patients; assay type: in vivo, human; conditions: MSA-P Patient 1; 6 weeks later

In the case of `CC(=O)NC(CC(C)C)C(=O)O` (racemic) [acetyl-DL-leucine], the “Average step cycle time” value ([1]; p<0.001 vs untreated) is reported as “significantly faster average step cycle times”, the “Hind step cycle time” value ([1]; p<0.01 vs untreated) is reported as “significantly faster hind step cycle times” and the “Front step cycle time” value ([1]; p<0.05 vs untreated) is reported as “significantly faster front step cycle times”. For the same molecule, the Gait ([2]; 5 gram per day, approximately one month of treatment) was “significant improvement of gait”, the “Symptoms after suspension of treatment” value ([2]; re-examined 13 days after stopping) was “symptoms worsened” and the Speech ([2]; under therapy) was “improvement of speech”. The Falls ([2]; under therapy, before 2-3 falls per month) was “falls stopped”, the “Ataxia in one-month study involving 12 patients” value [3] was “symptomatic improvement of ataxia” and the “LysoTracker fluorescence relative to untreated disease fibroblasts” value [4] was “trend in reducing LysoTracker fluorescence”. For the same molecule, the “LC3-II levels relative to tubulin loading control” value [5] was “lowering of LC3-II”, the GSL levels [6] was “trend towards decreased GSL levels” and the IRLS ([7]; RLS Patient 1 (myotonic dystrophy type 2), 5 g per day, within 14 days, before 36) was 26. For the same molecule, the IRLS ([7]; RLS Patient 1, 2 weeks after re-introduction of the treatment) was 8, the IRLS ([7]; RLS Patient 1, after another 5 weeks) was 9 and the IRLS ([7]; RLS Patient 1, continuation of treatment over more than 22 weeks) was 8. The IRLS ([7]; RLS Patient 1, interruption of 4 weeks after week 12 of the treatment) was 28, the IRLS ([7]; RLS Patient 2 (myotonic dystrophy type 2), 5 g per day, within 14 days, before 32) was 22 and the IRLS ([7]; RLS Patient 2, after another 5 weeks) was 7. The IRLS ([7]; RLS Patient 2, continuation of treatment over more than 28 weeks) was 8, the IRLS ([7]; RLS Patient 3 (McArdle myopathy), 5 g per day, within 21 days, before 34) was 20 and the IRLS ([7]; RLS Patient 3, after another 10 weeks) was 10. For the same molecule, the IRLS ([7]; RLS Patient 3, continuation of treatment over more than 30 weeks) was 10, the “Fatigue Severit Scale” value ([7]; RLS Patient 3, scale 9 (minimum) to 63 (maximum), declined from 53) was 28 and the “Mother's report compared to older siblings at each age” value [8] was “improved fine motor skills and improved speech”. For the same molecule, the “Symptoms after stopping medication” value [9] was “did not report deterioration of symptoms”.
